Assays:
IL-10 = IL-10 mRNA expression in LPS-treated hMADS derived adipocytes (real-time PCR); assay type: cell-based, human; conditions: butyric acid 10^−4M, hexanoic acid 10^−5M, 24 h then 5 ug/mL LPS 24 h, relative to LPS without short chain fatty acids, FIG. 10
Procedure: In the experiment, adipose tissue-derived stem cells were pre-treated with butyric acid, caproic acid, and a combination thereof after which lipopolysaccharide (LPS) was added to induce (low-grade) inflammation. […] Pooled human multipotent adipose tissue-derived stem cells (hMADS), were differentiated into the adipogenic lineage, creating a human white adipocyte model. hMADS cells were derived from male human donors with a large range in BMI (20-40 kg/m2) and glucometabolic status, and age between 35 and 70 years of age. Cells were seeded at a density of 2,000 cells/cm2 and kept in proliferation medium containing Dulbecco's modified Eagle's medium (DMEM), Ham's F-12 Nutrient Mixture (Gibco, Bleiswijk, Netherlands), 10% fetal bovine serum (Bodinco BV, Alkmaar, NL, Netherlands), 50 U/ml penicillin (Gibco), and 50 μg/ml of streptomycin (Gibco)]. At 70-80% confluence, 250 μmol/L IBMX (Sigma, St. Louis, MI, USA) and 5 μmol/L rosiglitazone (Enzo Life Sciences, Raamsdonksveer, Netherlands) were added to induce adipogenic differentiation. Experiments were carried out between days 12 and 14 of the differentiation. To study the effect of butyric acid (10^-4M) and hexanoic acid (10^-5M) on the expression of the anti-inflammatory cytokine IL-10, hMADS derived adipocytes were incubated with butyric acid, hexanoic acid or the combination thereof. […]

IL-6 = IL-6 production by LPS-treated hMADS adipocytes (ECL immunoassay); assay type: cell-based, human; conditions: fatty acid 10-4 to 10-9 mol 24 h then 5 ug/mL LPS 24 h, versus LPS only, all tested concentrations, FIG. 8/9
Procedure: An experiment was carried out to ascertain the extent to which butyric acid and caproic acid effect the production of the proinflammatory cytokine IL-6 in an inflammatory condition.
Pooled human multipotent adipose tissue-derived stem cells (hMADS), were differentiated into the adipogenic lineage, creating a human white adipocyte model. hMADS cells were derived from male human donors with a large range in BMI (20-40 kg/m2) and glucometabolic status, and age between 35 and 70 years of age. Cells were seeded at a density of 2,000 cells/cm2 and kept in a proliferation medium containing Dulbecco's modified Eagle's medium (DMEM), Ham's F-12 Nutrient Mixture (Gibco, Bleiswijk, Netherlands), 10% fetal bovine serum (Bodinco BV, Alkmaar, NL, Netherlands), 50 U/ml penicillin (Gibco), and 50 μg/ml of streptomycin (Gibco)].
At 70-80% confluence, 250 μmol/L IBMX (Sigma, St. Louis, MI, USA) and 5 μmol/L rosiglitazone (Enzo Life Sciences, Raamsdonksveer, Netherlands) were added to induce adipogenic differentiation. Experiments were carried out between days 12 and 14 of the differentiation. […]
IL-6 cytokine levels in the culture supernatant were evaluated using a electrochemiluminescence (ECL) immunoassay (MSD; Rockville, Maryland) according to the manufacturers protocol. […]

Structure (SMILES) | expression of IL-10 (mRNA) (IL-10) | concentration of IL-6 (IL-6)
CCCC(=O)O [butyric acid] | small increase | lower
CCCCCC(=O)O [hexanoic acid] | small increase | lower

Source: patent US20260124168A1, “OIL COMPOSITION COMPRISING CAPROIC ACID RESIDUES, UNSATURATED FATTY ACID RESIDUES AND SATURATED FATTY ACID RESIDUES” (AAK AB (PUBL), priority 2022, published 2026)
